The source made the active and inactive calls.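 How the source made its calls: active means binding inhibited by at least 50%, or stimulated by at least 50%, shown as inhibition of -50% or lower; inactive means the rest.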
Columns and labels:
Assay in all cases: off-target binding across receptor panel, profiling panel, selectivity assay for AVPR1a antagonist project, biochemical, Panlabs HitProfilingScreen (AID 743088)
[1] = tested on: Adenosine A1; conditions: Panlabs radioligand binding panel, 30 targets, at 10 µM, stronger effect = higher value
[2] = tested on: Adrenergic alpha1A; conditions: Panlabs radioligand binding panel, 30 targets, at 10 µM, stronger effect = higher value
[3] = tested on: Adenosine A2A; conditions: Panlabs radioligand binding panel, 30 targets, at 10 µM, stronger effect = higher value
[4] = tested on: Adrenergic beta1; conditions: Panlabs radioligand binding panel, 30 targets, at 10 µM, stronger effect = higher value
[5] = tested on: GABAA Central; conditions: Panlabs radioligand binding panel, 30 targets, at 10 µM, stronger effect = higher value
[6] = tested on: Calcium Channel L-Type; conditions: Panlabs radioligand binding panel, 30 targets, Dihydropyridine site, at 10 µM, stronger effect = higher value
[7] = biological target: Alpha-2A adrenergic receptor (Homo sapiens) (UniProt P08913); conditions: Panlabs radioligand binding panel, 30 targets; Adrenergic alpha2A; at 10 µM; stronger effect = higher value
Sequence of Alpha-2A adrenergic receptor (Homo sapiens) (P08913 whole entry, looked up): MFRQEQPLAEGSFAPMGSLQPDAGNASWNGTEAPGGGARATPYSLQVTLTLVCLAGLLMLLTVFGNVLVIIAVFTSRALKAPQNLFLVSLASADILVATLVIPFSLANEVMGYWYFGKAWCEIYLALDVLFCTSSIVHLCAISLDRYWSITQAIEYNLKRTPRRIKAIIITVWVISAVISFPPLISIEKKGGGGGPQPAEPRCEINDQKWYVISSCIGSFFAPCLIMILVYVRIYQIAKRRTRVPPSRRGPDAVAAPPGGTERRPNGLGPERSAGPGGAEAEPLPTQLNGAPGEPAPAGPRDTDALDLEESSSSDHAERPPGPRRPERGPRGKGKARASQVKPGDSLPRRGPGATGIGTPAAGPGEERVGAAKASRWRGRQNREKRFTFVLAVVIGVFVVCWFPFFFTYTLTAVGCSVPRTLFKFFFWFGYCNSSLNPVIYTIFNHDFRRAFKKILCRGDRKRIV

[8] = tested on: Nicotinic Acetylcholine; conditions: Panlabs radioligand binding panel, 30 targets, at 10 µM, stronger effect = higher value
[9] = tested on: Sodium Channel Site 2; conditions: Panlabs radioligand binding panel, 30 targets, at 10 µM, stronger effect = higher value
[10] = tested on: Sigma 1; conditions: Panlabs radioligand binding panel, 30 targets, at 10 µM, stronger effect = higher value
[11] = biological target: D(1A) dopamine receptor (Homo sapiens) (UniProt P21728); conditions: Panlabs radioligand binding panel, 30 targets; Dopamine D1; at 10 µM; stronger effect = higher value
Sequence of D(1A) dopamine receptor (Homo sapiens) (P21728 whole entry, looked up): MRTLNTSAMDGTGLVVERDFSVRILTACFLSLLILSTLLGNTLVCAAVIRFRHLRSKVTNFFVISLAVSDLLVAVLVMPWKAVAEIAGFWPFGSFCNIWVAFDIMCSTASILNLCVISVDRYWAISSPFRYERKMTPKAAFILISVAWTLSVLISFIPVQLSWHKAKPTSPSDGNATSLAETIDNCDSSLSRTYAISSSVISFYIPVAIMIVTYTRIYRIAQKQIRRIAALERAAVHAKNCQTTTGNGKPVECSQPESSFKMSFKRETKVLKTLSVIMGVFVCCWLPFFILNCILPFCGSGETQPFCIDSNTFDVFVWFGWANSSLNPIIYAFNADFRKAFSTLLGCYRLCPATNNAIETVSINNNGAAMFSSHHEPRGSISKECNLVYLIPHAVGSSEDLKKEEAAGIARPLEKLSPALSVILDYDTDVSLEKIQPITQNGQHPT

[12] = tested on: Opiate mu (OP3, MOP); conditions: Panlabs radioligand binding panel, 30 targets, at 10 µM, stronger effect = higher value
[13] = tested on: Cannabinoid CB1; conditions: Panlabs radioligand binding panel, 30 targets, at 10 µM, stronger effect = higher value
[14] = tested on: Prostanoid EP4; conditions: Panlabs radioligand binding panel, 30 targets, at 10 µM, stronger effect = higher value
[15] = tested on: Alpha-2A adrenergic receptor (Homo sapiens) + Histamine H1 receptor (Homo sapiens) + Mu-type opioid receptor (Homo sapiens); conditions: Panlabs radioligand binding panel, 30 targets; at 10 µM; stronger effect = higher value
[16] = biological target: Beta-2 adrenergic receptor (Homo sapiens) (UniProt P07550); conditions: Panlabs radioligand binding panel, 30 targets; Adrenergic beta2; at 10 µM; stronger effect = higher value
Sequence of Beta-2 adrenergic receptor (Homo sapiens) (P07550 whole entry, looked up): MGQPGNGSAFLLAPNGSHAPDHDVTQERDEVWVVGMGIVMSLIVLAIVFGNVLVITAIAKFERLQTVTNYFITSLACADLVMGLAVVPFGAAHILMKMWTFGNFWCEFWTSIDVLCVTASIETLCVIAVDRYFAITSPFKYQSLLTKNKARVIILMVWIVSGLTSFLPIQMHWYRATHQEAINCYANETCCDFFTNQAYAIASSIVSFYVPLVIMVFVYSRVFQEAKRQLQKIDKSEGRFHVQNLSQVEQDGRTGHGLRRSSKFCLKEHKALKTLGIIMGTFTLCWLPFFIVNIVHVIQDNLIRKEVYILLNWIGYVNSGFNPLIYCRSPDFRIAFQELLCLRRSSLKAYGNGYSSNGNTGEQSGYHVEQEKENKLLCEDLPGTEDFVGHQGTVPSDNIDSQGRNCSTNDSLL

[17] = tested on: Transporter Norepinephrine (NET); conditions: Panlabs radioligand binding panel, 30 targets, at 10 µM, stronger effect = higher value
[18] = tested on: Adrenergic alpha1B; conditions: Panlabs radioligand binding panel, 30 targets, at 10 µM, stronger effect = higher value
[19] = tested on: Histamine H1; conditions: Panlabs radioligand binding panel, 30 targets, at 10 µM, stronger effect = higher value
[20] = biological target: Muscarinic acetylcholine receptor M2 (Homo sapiens) (UniProt P08172); conditions: Panlabs radioligand binding panel, 30 targets, at 10 µM, stronger effect = higher value
Sequence of Muscarinic acetylcholine receptor M2 (Homo sapiens) (P08172 whole entry, looked up): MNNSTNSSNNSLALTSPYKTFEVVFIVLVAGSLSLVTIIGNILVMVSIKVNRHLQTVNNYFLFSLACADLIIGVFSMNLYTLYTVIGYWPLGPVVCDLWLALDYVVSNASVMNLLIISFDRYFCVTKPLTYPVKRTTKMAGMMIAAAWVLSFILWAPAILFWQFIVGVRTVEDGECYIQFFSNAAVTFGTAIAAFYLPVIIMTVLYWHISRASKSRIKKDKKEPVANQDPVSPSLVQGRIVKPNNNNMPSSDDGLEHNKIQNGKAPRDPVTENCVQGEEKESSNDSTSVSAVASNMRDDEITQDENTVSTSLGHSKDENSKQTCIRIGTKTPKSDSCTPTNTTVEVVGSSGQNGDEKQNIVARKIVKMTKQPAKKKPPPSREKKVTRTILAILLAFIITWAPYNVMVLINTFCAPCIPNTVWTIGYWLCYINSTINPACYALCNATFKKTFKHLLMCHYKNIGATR

[21] = tested on: Glutamate NMDA; conditions: Panlabs radioligand binding panel, 30 targets, Phencyclidine site, at 10 µM, stronger effect = higher value
[22] = biological target: Voltage-gated inwardly rectifying potassium channel KCNH2 (Homo sapiens) (UniProt Q12809); conditions: Panlabs radioligand binding panel, 30 targets; Potassium Channel hERG; at 10 µM; stronger effect = higher value
Sequence of Voltage-gated inwardly rectifying potassium channel KCNH2 (Homo sapiens) (Q12809 whole entry, looked up): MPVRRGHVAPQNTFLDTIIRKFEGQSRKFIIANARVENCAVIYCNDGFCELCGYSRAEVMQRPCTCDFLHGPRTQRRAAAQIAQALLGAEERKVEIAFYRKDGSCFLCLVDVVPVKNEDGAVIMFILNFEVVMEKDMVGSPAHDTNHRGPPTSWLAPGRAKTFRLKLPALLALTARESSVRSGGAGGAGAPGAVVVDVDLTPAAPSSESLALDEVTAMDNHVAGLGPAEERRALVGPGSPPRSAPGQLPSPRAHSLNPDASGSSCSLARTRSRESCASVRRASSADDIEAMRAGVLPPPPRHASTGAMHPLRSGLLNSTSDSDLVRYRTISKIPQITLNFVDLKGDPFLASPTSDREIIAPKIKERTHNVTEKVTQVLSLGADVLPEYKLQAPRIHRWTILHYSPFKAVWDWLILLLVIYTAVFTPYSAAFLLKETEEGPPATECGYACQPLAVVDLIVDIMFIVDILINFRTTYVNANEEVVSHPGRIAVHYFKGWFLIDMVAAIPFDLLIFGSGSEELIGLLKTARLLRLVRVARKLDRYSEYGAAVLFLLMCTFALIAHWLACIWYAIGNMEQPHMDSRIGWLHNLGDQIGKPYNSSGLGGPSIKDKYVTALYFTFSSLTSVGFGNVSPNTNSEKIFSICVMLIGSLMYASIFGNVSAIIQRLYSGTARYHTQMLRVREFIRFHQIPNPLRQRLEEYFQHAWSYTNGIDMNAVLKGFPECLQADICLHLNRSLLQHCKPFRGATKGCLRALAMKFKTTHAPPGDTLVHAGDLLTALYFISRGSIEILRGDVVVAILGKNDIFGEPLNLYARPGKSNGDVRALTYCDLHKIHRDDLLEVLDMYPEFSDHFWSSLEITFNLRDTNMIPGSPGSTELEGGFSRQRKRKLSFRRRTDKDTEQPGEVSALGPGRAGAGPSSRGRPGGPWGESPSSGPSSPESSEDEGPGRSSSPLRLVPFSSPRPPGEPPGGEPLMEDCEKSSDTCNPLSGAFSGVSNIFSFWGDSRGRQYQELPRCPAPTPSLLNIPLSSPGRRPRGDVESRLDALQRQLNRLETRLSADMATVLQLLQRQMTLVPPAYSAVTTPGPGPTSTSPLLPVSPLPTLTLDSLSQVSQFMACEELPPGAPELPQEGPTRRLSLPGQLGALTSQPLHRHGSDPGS

[23] = tested on: Dopamine D2; conditions: Panlabs radioligand binding panel, 30 targets, at 10 µM, stronger effect = higher value
[24] = biological target: 5-hydroxytryptamine receptor 2B (Homo sapiens) (UniProt P41595); conditions: Panlabs radioligand binding panel, 30 targets; Serotonin (5-Hydroxytryptamine) 5-HT2B; at 10 µM; stronger effect = higher value
Sequence of 5-hydroxytryptamine receptor 2B (Homo sapiens) (P41595 whole entry, looked up): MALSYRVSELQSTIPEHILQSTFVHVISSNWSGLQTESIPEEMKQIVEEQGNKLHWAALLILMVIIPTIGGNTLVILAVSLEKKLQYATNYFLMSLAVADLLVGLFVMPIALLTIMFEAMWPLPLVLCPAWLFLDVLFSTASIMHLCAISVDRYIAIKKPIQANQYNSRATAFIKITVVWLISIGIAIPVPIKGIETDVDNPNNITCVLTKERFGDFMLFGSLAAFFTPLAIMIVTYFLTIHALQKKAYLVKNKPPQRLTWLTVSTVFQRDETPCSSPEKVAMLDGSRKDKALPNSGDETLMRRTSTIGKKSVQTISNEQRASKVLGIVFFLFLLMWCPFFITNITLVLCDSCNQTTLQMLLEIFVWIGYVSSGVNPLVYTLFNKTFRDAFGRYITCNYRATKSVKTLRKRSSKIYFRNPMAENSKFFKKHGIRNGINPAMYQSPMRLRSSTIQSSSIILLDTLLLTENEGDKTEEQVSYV

[25] = biological target: Muscarinic acetylcholine receptor M3 (Homo sapiens) (UniProt P20309); conditions: Panlabs radioligand binding panel, 30 targets, at 10 µM, stronger effect = higher value
Sequence of Muscarinic acetylcholine receptor M3 (Homo sapiens) (P20309 whole entry, looked up): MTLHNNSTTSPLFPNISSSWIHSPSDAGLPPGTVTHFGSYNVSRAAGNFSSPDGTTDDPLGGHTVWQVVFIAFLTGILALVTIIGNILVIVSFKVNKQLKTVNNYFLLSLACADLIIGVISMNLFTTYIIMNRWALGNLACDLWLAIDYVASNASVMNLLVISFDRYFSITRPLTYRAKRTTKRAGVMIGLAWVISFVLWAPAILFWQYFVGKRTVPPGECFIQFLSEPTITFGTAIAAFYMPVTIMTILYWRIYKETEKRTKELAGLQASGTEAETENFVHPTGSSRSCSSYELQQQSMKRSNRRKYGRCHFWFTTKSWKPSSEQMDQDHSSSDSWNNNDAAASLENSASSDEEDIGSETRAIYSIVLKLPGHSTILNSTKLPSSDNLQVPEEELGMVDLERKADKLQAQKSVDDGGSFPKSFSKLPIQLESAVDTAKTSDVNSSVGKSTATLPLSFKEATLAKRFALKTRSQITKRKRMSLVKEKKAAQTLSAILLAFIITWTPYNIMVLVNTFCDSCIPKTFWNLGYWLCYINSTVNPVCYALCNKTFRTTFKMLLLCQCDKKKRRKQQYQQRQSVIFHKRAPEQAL

O=C(C1CCN(c2ccc(Cl)cn2)CC1)N(CC1CC1)c1ccc(Cl)cc1
inhibition of binding [1]: -4% (inactive)
inhibition of binding [2]: 23% (inactive)
inhibition of binding [3]: 7% (inactive)
inhibition of binding [4]: 12% (inactive)
inhibition of binding ([5]; Flunitrazepam site): -6% (inactive)
inhibition of binding ([5]; Muscimol site): 7% (inactive)
inhibition of binding [6]: 44% (inactive)
inhibition of binding [7]: 8% (inactive)
inhibition of binding [8]: -15% (inactive)
inhibition of binding [9]: 35% (inactive)
inhibition of binding [10]: 61%
inhibition of binding [11]: -6% (inactive)
inhibition of binding [12]: 23% (inactive)
inhibition of binding [13]: 48% (inactive)
inhibition of binding [14]: 31% (inactive)
inhibition of binding [15]: 6% (inactive)
inhibition of binding [16]: 5% (inactive)
inhibition of binding [17]: 47% (inactive)
inhibition of binding [18]: -15% (inactive)
inhibition of binding [19]: 12% (inactive)
inhibition of binding [20]: -5% (inactive)
inhibition of binding [21]: 5% (inactive)
inhibition of binding [22]: 22% (inactive)
inhibition of binding [23]: 1% (inactive)
inhibition of binding [24]: 36% (inactive)
inhibition of binding [25]: -2% (inactive)
